Source: patent publication US8507540B2, “Oxazolidinone derivatives containing new bicyclic group, having antibacterial activity, and method for treating pathogenic bacterial infections using the same” (Korean Institute of Science and Technology, priority 2011, dated 2013)
In brackets after ≈: the same amount, converted by molar mass.

Legend:
[1] = molecular target: CYP2C9 (Homo sapiens, UniProt P11712); experiment: CYP450 remaining test (Vivid CYP450 Screening Kits)
[2] = system: Enterococcus faecalis, vancomycin susceptible; experiment: In vitro antibacterial activity test, Agar Dilution MIC; details: 18 h
[3] = system: Staphylococcus pyogenes; experiment: as above; details: Staphylococcus aureus, 18 h
[4] = system: Staphylococcus agalactiae; experiment: as above; details: 18 h
[5] = system: Staphylococcus pneumoniae, penicillin non-susceptible; experiment: as above; details: 18 h
[6] = system: Staphylococcus aureus, methicillin resistant; experiment: as above; details: 18 h
[7] = system: Enterococcus faecium, vancomycin resistant; experiment: as above; details: 18 h
[8] = system: Coagulase negative staphylococci, methicillin resistant; experiment: as above; details: 18 h
[9] = system: Coagulase negative staphylococci, methicillin susceptible; experiment: as above; details: 18 h
[10] = system: Enterococcus faecium, vancomycin susceptible; experiment: as above; details: 18 h
[11] = system: Haemophilus influenzae, beta-lactamase-positive; experiment: as above; details: 18 h
[12] = system: Enterococcus faecalis, vancomycin resistant; experiment: as above; details: 18 h
[13] = system: Staphylococcus pneumoniae, penicillin susceptible; experiment: as above; details: 18 h
[14] = system: Staphylococcus aureus, methicillin susceptible; experiment: as above; details: 18 h
[15] = system: Mycobacterium tuberculosis (Mtb) H37Rv; experiment: In vitro antituberculous activity test, Microplate Alamar Blue Assay; type: cell-based; details: versus linezolid
[16] = system: MRSA and other gram positive bacteria; Staphylococcus sp., Enterococcus sp. and Haemophilus influenza; experiment: In vitro antibacterial activity test, overall statements on the strain panel; details: various strains of Table 1
[17] = molecular target: CYP2D6 (Homo sapiens, UniProt P10635); experiment: CYP450 remaining test (Vivid CYP450 Screening Kits)
Method: CYP450 remaining test was conducted using Vivid® CYP450 Screening Kits Protocol (Invitrogen), and hERG assay for cardiac toxicity test was conducted using an automated patch-clamp device, NPC-16 Patchliner (Nanion Technologies, Munchen, Germany) according to the method of C. Farre, et al. (Combinatorial Chemistry & High Throughput Screening, 2009, 12, 24-37). And, human hepatic microsomal stability test was conducted according to the method of W. A. Korfmacher, et al. (Rapid Commun. Mass Spectrom. 13, 901-907 (1999)).

Chain of CYP2C9 (P11712 whole entry): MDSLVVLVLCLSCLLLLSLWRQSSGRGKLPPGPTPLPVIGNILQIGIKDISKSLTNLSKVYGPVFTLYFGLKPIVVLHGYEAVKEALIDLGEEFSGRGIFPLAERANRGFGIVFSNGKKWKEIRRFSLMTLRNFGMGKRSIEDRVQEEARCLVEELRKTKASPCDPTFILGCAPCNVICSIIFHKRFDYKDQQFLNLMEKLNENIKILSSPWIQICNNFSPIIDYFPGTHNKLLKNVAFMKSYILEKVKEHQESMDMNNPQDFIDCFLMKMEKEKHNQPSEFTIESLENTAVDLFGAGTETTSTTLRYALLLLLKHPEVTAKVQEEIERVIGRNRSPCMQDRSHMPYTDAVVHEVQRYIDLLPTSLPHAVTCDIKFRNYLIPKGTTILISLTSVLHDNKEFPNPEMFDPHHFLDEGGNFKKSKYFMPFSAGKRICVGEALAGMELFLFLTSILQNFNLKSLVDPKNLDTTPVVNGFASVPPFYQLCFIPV
Chain of CYP2D6 (P10635 whole entry): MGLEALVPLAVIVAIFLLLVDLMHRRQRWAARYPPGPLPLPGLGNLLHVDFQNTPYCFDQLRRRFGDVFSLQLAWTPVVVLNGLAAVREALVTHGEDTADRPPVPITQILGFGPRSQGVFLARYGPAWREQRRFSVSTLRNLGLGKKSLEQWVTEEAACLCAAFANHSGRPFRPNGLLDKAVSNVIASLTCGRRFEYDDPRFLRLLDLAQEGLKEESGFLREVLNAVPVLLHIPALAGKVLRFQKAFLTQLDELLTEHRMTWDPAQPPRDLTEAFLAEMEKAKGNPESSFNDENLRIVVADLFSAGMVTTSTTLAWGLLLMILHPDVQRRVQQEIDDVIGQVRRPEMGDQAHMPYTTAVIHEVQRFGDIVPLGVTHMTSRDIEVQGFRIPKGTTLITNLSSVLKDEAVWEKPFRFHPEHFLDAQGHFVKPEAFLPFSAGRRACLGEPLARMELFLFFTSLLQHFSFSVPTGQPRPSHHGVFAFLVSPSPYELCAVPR

SMILES	activity [1]	MIC [2]	MIC [3]	MIC [4]	MIC [5]	MIC [6]	MIC [7]	MIC [8]	MIC [9]	MIC [10]	MIC [11]	MIC [12]	MIC [13]	MIC [14]	antituberculous activity compared to linezolid [15]	antibacterial activity against the strain panel [16]	activity [17]
Nc1ccc(S(=O)(=O)Nc2ccnn2-c2ccccc2)cc1 [sulfaphenazol, reference compound]	-3.5%	–	–	–	–	–	–	–	–	–	–	–	–	–	–	–	–
N#CCC1=CC2CN(c3ccc(N4C[C@H](Cn5ccnn5)OC4=O)cc3F)CC2C1 (stereo partly drawn) [Example 8, (5R)-3-[4-(5-cyanomethyl-3,3a,4,6a-tetrahydro-1H-cyclopenta[c]pyrrol-2-yl)-3-fluorophenyl]-5-(1,2,3-triazol-1-ylmethyl)oxazolidin-2-one]	–	6.2 µg/mL (≈ 15.2 µM)	1.5 µg/mL (≈ 3.67 µM)	3.1 µg/mL (≈ 7.59 µM)	1.5 µg/mL (≈ 3.67 µM)	1.5 µg/mL (≈ 3.67 µM)	6.2 µg/mL (≈ 15.2 µM)	6.2 µg/mL (≈ 15.2 µM)	6.2 µg/mL (≈ 15.2 µM)	6.2 µg/mL (≈ 15.2 µM)	1.5 µg/mL (≈ 3.67 µM)	6.2 µg/mL (≈ 15.2 µM)	3.1 µg/mL (≈ 7.59 µM)	6.2 µg/mL (≈ 15.2 µM)	–	–	–
N#CC1=CC2CN(c3ccc(N4C[C@H](Cn5ccnn5)OC4=O)cc3F)CC2C1 (stereo partly drawn) [Example 9, (5R)-3-[4-(5-cyano-3,3a,4,6a-tetrahydro-1H-cyclopenta[c]pyrrol-2-yl)-3-fluorophenyl]-5-(1,2,3-triazol-1-ylmethyl)oxazolidin-2-one]	–	3.1 µg/mL (≈ 7.86 µM)	0.7 µg/mL (≈ 1.77 µM)	1.5 µg/mL (≈ 3.8 µM)	0.7 µg/mL (≈ 1.77 µM)	1.5 µg/mL (≈ 3.8 µM)	3.1 µg/mL (≈ 7.86 µM)	3.1 µg/mL (≈ 7.86 µM)	3.1 µg/mL (≈ 7.86 µM)	3.1 µg/mL (≈ 7.86 µM)	0.7 µg/mL (≈ 1.77 µM)	3.1 µg/mL (≈ 7.86 µM)	1.5 µg/mL (≈ 3.8 µM)	3.1 µg/mL (≈ 7.86 µM)	–	–	–
N#CC=C1CC2CN(c3ccc(N4C[C@H](Cn5ccnn5)OC4=O)cc3F)CC2C1 (stereo partly drawn) [Example 7, (5R)-3-[4-(5-cyanomethylene-hexahydro-cyclopenta[c]pyrrol-2-yl)-3-fluorophenyl]-5-(1,2,3-triazol-1-ylmethyl)oxazolidin-2-one]	–	1.5 µg/mL (≈ 3.67 µM)	0.3 µg/mL (≈ 0.735 µM)	0.7 µg/mL (≈ 1.71 µM)	0.3 µg/mL (≈ 0.735 µM)	0.7 µg/mL (≈ 1.71 µM)	1.5 µg/mL (≈ 3.67 µM)	1.5 µg/mL (≈ 3.67 µM)	1.5 µg/mL (≈ 3.67 µM)	1.5 µg/mL (≈ 3.67 µM)	0.3 µg/mL (≈ 0.735 µM)	3.1 µg/mL (≈ 7.59 µM)	0.7 µg/mL (≈ 1.71 µM)	1.5 µg/mL (≈ 3.67 µM)	antibacterial effects equivalent to linezolid	high antibacterial activities	–
C=C[C@H]1C[N@@]2CC[C@H]1C[C@@H]2[C@@H](O)c1ccnc2ccc(OC)cc12 [quinidine, reference compound]	–	–	–	–	–	–	–	–	–	–	–	–	–	–	–	–	11.1%
CC(=O)NC[C@H]1CN(c2ccc(N3CC4CC(=CC#N)CC4C3)c(F)c2)C(=O)O1 (stereo partly drawn) [Example 1, N-[[(5S)-3-[4-(5-cyanomethylene-hexahydro-cyclopenta[c]pyrrol-2-yl)-3-fluorophenyl]-2-oxo-5-oxazolidinyl]methyl]acetamide]	–	1.5 µg/mL (≈ 3.76 µM)	0.7 µg/mL (≈ 1.76 µM)	1.5 µg/mL (≈ 3.76 µM)	0.7 µg/mL (≈ 1.76 µM)	3.1 µg/mL (≈ 7.78 µM)	1.5 µg/mL (≈ 3.76 µM)	3.1 µg/mL (≈ 7.78 µM)	3.1 µg/mL (≈ 7.78 µM)	0.7 µg/mL (≈ 1.76 µM)	0.7 µg/mL (≈ 1.76 µM)	1.5 µg/mL (≈ 3.76 µM)	0.7 µg/mL (≈ 1.76 µM)	3.1 µg/mL (≈ 7.78 µM)	antibacterial effects equivalent to linezolid	–	–
